This passage reports IC50 and Ki results from ChEMBL document CHEMBL1909046, “DrugMatrix in vitro pharmacology data”.

Molecules are shown by their SMILES.

Assay [1] can be described thus: DRUGMATRIX: Sodium/nucleoside co-transporter radioligand binding (ligand: nitrobenzylthioinosine). Conditions: Not Active = under 50% inhibition at 10 µM. The class given is cell membranes, Cavia porcellus, Dunkin-Hartley, Cerebral cortex, Membrane.
Assay [2] deals with T1, Alpha-1D adrenergic receptor (Homo sapiens, UniProt P25100).
T1 sequence (P25100 whole entry): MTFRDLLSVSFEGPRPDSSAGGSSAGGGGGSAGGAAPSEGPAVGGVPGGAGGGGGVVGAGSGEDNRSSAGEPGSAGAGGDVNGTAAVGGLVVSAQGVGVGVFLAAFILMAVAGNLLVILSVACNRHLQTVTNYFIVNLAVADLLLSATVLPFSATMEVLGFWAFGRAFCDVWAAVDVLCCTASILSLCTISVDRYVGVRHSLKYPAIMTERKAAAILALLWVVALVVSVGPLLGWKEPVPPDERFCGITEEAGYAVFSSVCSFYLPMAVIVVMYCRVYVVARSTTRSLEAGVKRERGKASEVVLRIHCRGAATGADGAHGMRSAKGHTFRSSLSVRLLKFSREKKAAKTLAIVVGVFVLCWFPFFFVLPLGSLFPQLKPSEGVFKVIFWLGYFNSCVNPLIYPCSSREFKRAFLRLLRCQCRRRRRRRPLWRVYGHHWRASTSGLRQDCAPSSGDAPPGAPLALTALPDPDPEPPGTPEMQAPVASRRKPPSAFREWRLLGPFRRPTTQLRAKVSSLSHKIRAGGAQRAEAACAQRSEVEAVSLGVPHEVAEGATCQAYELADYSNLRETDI
It counts as cell membranes, HEK293, Membrane.

Assay [3] is described as follows: DRUGMATRIX: Atrial Natriuretic Factor (ANF) radioligand binding (ligand: [125I] ANF (rat)). It counts as cell membranes, Cavia porcellus, Dunkin-Hartley, Adrenal gland, Membrane. Conditions: Not Active = under 50% inhibition at 10 µM.
Another assay deals with T2, Substance-K receptor (Homo sapiens, UniProt P21452).
T2 sequence (P21452 whole entry): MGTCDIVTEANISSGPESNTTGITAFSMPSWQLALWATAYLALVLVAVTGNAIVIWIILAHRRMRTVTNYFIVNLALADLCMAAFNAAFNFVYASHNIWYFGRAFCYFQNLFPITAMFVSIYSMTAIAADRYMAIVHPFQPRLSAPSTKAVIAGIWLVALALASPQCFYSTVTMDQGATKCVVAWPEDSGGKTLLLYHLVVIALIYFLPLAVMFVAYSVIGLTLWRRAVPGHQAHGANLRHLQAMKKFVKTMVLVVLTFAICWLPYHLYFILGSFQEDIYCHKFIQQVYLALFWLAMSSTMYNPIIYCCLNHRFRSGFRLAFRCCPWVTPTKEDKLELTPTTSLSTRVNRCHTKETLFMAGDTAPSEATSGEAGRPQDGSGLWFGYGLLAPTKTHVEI
It counts as cell membranes, CHO, Membrane.

Assay [4] addresses Mitogen-activated protein kinase 14 (Homo sapiens, UniProt Q16539). On the set-up: species or system Escherichia coli.
Assay [5] addresses Tyrosine-protein kinase Fyn (Homo sapiens, UniProt P06241). Description: biochemical. It counts as cell-based, Insect cells.

Sequence of Mitogen-activated protein kinase 14 (Q16539 whole entry): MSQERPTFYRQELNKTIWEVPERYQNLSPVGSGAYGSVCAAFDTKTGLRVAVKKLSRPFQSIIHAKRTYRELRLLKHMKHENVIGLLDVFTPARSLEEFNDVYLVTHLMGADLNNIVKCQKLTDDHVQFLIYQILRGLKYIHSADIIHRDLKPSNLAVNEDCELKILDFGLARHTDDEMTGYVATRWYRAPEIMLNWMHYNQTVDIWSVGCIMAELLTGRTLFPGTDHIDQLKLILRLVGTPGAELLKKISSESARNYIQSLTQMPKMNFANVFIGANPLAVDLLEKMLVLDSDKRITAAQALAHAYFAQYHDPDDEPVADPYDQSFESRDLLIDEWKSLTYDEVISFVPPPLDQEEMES
Sequence of Tyrosine-protein kinase Fyn (P06241 whole entry): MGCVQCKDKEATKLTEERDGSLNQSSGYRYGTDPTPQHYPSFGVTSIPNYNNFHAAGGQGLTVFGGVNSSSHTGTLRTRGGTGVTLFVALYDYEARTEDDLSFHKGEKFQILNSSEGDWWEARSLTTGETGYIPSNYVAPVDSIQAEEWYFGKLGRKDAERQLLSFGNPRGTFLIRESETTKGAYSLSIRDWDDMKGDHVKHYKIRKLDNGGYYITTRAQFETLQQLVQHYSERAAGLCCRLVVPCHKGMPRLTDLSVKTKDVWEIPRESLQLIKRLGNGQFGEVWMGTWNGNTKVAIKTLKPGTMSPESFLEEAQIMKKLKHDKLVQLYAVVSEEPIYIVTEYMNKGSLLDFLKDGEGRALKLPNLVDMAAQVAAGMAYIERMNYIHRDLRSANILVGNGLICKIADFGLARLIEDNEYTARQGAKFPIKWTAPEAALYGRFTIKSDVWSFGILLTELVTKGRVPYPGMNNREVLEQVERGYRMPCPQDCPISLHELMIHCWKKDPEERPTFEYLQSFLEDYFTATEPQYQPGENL

As for `O=C(O)c1cc(=O)c2c(OCC(O)COc3cccc4oc(C(=O)O)cc(=O)c34)cccc2o1` [CROMOLYN], the IC50 result (in assay [1]; in assay [2] (hek293); in assay [3]; on Substance-K receptor (cho); in assay [4]; in assay [5] (insect cells)) was “Not Active” throughout. Also, the Ki result in assay [1] and in assay [3] was “Not Active” each time.

As for `O=P1(N(CCCl)CCCl)NCCCO1` (stereo not drawn) [CYCLOPHOSPHAMIDE ANHYDROUS], the IC50 result (in assay [1]; in assay [2] (hek293); in assay [3]; against Substance-K receptor (cho); in assay [4]; in assay [5] (insect cells)) was “Not Active” in each case. The Ki result in assay [1] and in assay [3] was “Not Active” in each case.

Turning to `CC(=O)O[C@]1(C(C)=O)CC[C@H]2[C@@H]3C=C(Cl)C4=CC(=O)[C@@H]5C[C@@H]5[C@]4(C)[C@H]3CC[C@@]21C` [CYPROTERONE ACETATE], the IC50 result (in assay [1]; in assay [3]; against Substance-K receptor (cho); in assay [4]; in assay [5] (insect cells)) was “Not Active” each time. In addition, the Ki result in assay [1], in assay [2] (hek293) and in assay [3] was “Not Active” in each case.

With `Nc1nc(N)nc(NC2CC2)n1` [CYROMAZINE], the IC50 result (in assay [1]; in assay [2] (hek293); in assay [3]; on Substance-K receptor (cho); in assay [4]; in assay [5] (insect cells)) was “Not Active” in each case. In addition, the Ki result in assay [1] and in assay [3] was “Not Active” each time.

For the compound `C#C[C@]1(O)CC[C@H]2[C@@H]3CCC4=Cc5oncc5C[C@]4(C)[C@H]3CC[C@@]21C` [DANAZOL], the half-inhibitory concentration (IC50) result in assay [1] is “Not Active”; in assay [2] (hek293), “Not Active”; in assay [3], “Not Active”; on Substance-K receptor (read-out: IC50) it was 26600 nM; in assay [4], “Not Active”; in assay [5] (insect cells) it was “Not Active”. For the same compound, the Ki result is “Not Active” in assay [1], “Not Active” in assay [3] and 8860 nM at Substance-K receptor (read-out: Ki).

Turning to `CCN[C@@H](C)Cc1cccc(C(F)(F)F)c1` [DEXFENFLURAMINE], the IC50 result (in assay [1]; in assay [2] (hek293); in assay [3]; on Substance-K receptor (cho); in assay [4]; in assay [5] (insect cells)) was “Not Active” in each case. In addition, the Ki entry in assay [1] and in assay [3] was “Not Active” in each case.

For `C[C@H](C(=O)O)c1cccc(C(=O)c2ccccc2)c1` [DEXKETOPROFEN], the IC50 result (in assay [1]; in assay [2] (hek293); in assay [3]; on Substance-K receptor (cho); in assay [4]; in assay [5] (insect cells)) was “Not Active” throughout. Further, the Ki result in assay [1] and in assay [3] was “Not Active” each time.

On to `CN1C(=O)CN=C(c2ccccc2)c2cc(Cl)ccc21` [DIAZEPAM], for which the IC50 result (in assay [1]; in assay [2] (hek293); in assay [3]; at Substance-K receptor (cho); in assay [4]; in assay [5] (insect cells)) was “Not Active” in each case. Besides, the Ki entry in assay [1] and in assay [3] was “Not Active” each time.

Consider `CN1C[C@H](C(=O)N[C@]2(C)O[C@@]3(O)[C@@H]4CCCN4C(=O)[C@H](Cc4ccccc4)N3C2=O)C[C@@H]2c3cccc4[nH]cc(c34)C[C@H]21` [DIHYDROERGOTAMINE], for which the IC50 result in assay [1] was “Not Active”; in assay [2] (read-out: IC50), 29 nM; in assay [3] it was “Not Active”; against Substance-K receptor (cho), “Not Active”; in assay [4] it was “Not Active”; in assay [5] (insect cells), “Not Active”. Besides, the figures for the Ki result in assay [1], in assay [2] (read-out: Ki) and in assay [3] were “Not Active”, 14 nM and “Not Active”, respectively.

As to `Cc1c(N(C)CS(=O)(=O)[O-])c(=O)n(-c2ccccc2)n1C.[Na+]` [DIPYRONE SODIUM], the IC50 entry (in assay [1]; in assay [2] (hek293); in assay [3]; against Substance-K receptor (cho); in assay [4]; in assay [5] (insect cells)) was “Not Active” throughout. In addition, the Ki result in assay [1] and in assay [3] was “Not Active” each time.

On to `CC(CCc1ccc(O)cc1)NCCc1ccc(O)c(O)c1` (stereo not drawn) [DOBUTAMINE], for which the IC50 entry in assay [1] is “Not Active”; in assay [2] (read-out: IC50), 114 nM; in assay [3], “Not Active”; against Substance-K receptor (cho) it was “Not Active”; in assay [4] it was “Not Active”; in assay [5] (read-out: IC50) it was 3980 nM. The results for the Ki result in assay [1], in assay [2] (read-out: Ki) and in assay [3] were “Not Active”, 56 nM and “Not Active”, respectively.

As to `CCn1cc(C(=O)O)c(=O)c2cc(F)c(N3CCNCC3)nc21` [ENOXACIN], the IC50 result (in assay [1]; in assay [2] (hek293); in assay [3]; against Substance-K receptor (cho); in assay [4]; in assay [5] (insect cells)) was “Not Active” in each case. Also, the Ki result in assay [1] and in assay [3] was “Not Active” each time.

`CCC(=O)O[C@H]1[C@H](O[C@@H]2[C@@H](C)[C@H](O[C@H]3C[C@@](C)(OC)[C@@H](O)[C@H](C)O3)[C@@H](C)C(=O)O[C@H](CC)[C@@](C)(O)[C@H](O)[C@@H](C)C(=O)[C@H](C)C[C@@]2(C)O)O[C@H](C)C[C@@H]1N(C)C` [ERYTHROMYCIN PROPIONATE]: the IC50 entry (in assay [1]; in assay [2] (hek293); in assay [3]; against Substance-K receptor (cho); in assay [4]; in assay [5] (insect cells)) was “Not Active” throughout. For the same compound, the Ki entry in assay [1] and in assay [3] was “Not Active” throughout.

For the compound `C=C(CC)C(=O)c1ccc(OCC(=O)O)c(Cl)c1Cl` [ETHACRYNIC ACID], the IC50 result (in assay [1]; in assay [2] (hek293); in assay [3]; at Substance-K receptor (cho); in assay [4]; in assay [5] (insect cells)) was “Not Active” in each case. Further, the Ki result in assay [1] and in assay [3] was “Not Active” throughout.

As to `C#C[C@]1(O)CC[C@H]2[C@@H]3CCc4cc(O)ccc4[C@H]3CC[C@@]21C` [ETHINYL ESTRADIOL], the IC50 entry (in assay [1]; in assay [2] (hek293); in assay [3]; against Substance-K receptor (cho); in assay [4]; in assay [5] (insect cells)) was “Not Active” throughout. For the same compound, the Ki entry in assay [1] and in assay [3] was “Not Active” throughout.

Take `OCCO` [ETHYLENE GLYCOL]: the IC50 entry (in assay [1]; in assay [2] (hek293); in assay [3]; on Substance-K receptor (cho); in assay [4]; in assay [5] (insect cells)) was “Not Active” each time. Besides, the Ki result in assay [1] and in assay [3] was “Not Active” each time.

On to `CC(=O)OCC(CCn1cnc2cnc(N)nc21)COC(C)=O` [FAMCICLOVIR], for which the IC50 entry (in assay [1]; in assay [2] (hek293); in assay [3]; on Substance-K receptor (cho); in assay [4]; in assay [5] (insect cells)) was “Not Active” in each case. In addition, the Ki result in assay [1] and in assay [3] was “Not Active” throughout.

`O=C(O)Cc1ccc(-c2ccccc2)cc1` [FELBINAC]: the IC50 entry (in assay [1]; in assay [2] (hek293); in assay [3]; on Substance-K receptor (cho); in assay [4]; in assay [5] (insect cells)) was “Not Active” each time. Further, the Ki result in assay [1] and in assay [3] was “Not Active” each time.

In the case of `CCOC(=O)C1=C(C)NC(C)=C(C(=O)OC)C1c1cccc(Cl)c1Cl` (stereo not drawn) [FELODIPINE], the IC50 entry (in assay [1]; in assay [2] (hek293); in assay [3]; against Substance-K receptor (cho); in assay [4]; in assay [5] (insect cells)) was “Not Active” each time. The Ki result in assay [1] and in assay [3] was “Not Active” each time.

On to `CC(C(=O)O)c1ccc(-c2ccccc2)c(F)c1` (stereo not drawn) [FLURBIPROFEN], for which the IC50 result (in assay [1]; in assay [2] (hek293); in assay [3]; at Substance-K receptor (cho); in assay [4]; in assay [5] (insect cells)) was “Not Active” each time. Further, the Ki result in assay [1] and in assay [3] was “Not Active” each time.

Usually IC50 stands for the concentration at which inhibition is half-maximal. One may read the Ki as a measure of affinity in units of concentration, obtained from inhibition or displacement.
